Measurements from ChEMBL document CHEMBL1132572 (J Med Chem, 1999).

How the values were obtained:
[1] = test system: Human immunodeficiency virus 1; assay: Concentration that inhibits Human Immunodeficiency Virus Type 1 (HIV-1)-induced death of MT-2 cells; type: functional, MT2; conditions: read-out: ED50 (the source's name)
MT2 = assay: Lethal dose (LD5) concentration inhibiting growth of MT-2 cells by 5%; type: toxicity, cell-based; conditions: human
[2] = biological target: Human immunodeficiency virus type 1 integrase (Human immunodeficiency virus 1, UniProt Q7ZJM1)
Description: Inhibitory activity against Human Immunodeficiency Virus Type 1 integrase (HIV-1 IN) in the disintegration assay.

[3] = test system: Human immunodeficiency virus 1; conditions: read-out: ED50
[4] = test system: Human immunodeficiency virus 1; conditions: read-out: ED50; remark: listed apart in the source
[5] = test system: Human immunodeficiency virus 1; assay: microbe, parasite or virus in culture; conditions: Human immunodeficiency virus 1, read-out: ED50
[6] = Human immunodeficiency virus 1, MT2

| Structure (SMILES) | EC50 [1, 6] [µM] | LD5 (MT2) [µM] | IC50 [2] [µM] | EC50 [1] [µM] | EC50 [3] [µM] | EC50 [4] [µM] | EC50 [5] [µM] |
| --- | --- | --- | --- | --- | --- | --- | --- |
| O=C(O)/C=C/c1ccc(O)c(O)c1 [CAFFEIC ACID] | > 1390 | 1389 | – | – | – | – | – |
| O=C(/C=C/c1ccc(O)c(O)c1)OC1CCC(OC(=O)/C=C/c2ccc(O)c(O)c2)CC1 (stereo not drawn) | > 341 | 170 | 1.03 | – | – | – | – |
| O=C(/C=C/c1ccc(O)c(O)c1)OCCCOC(=O)/C=C/c1ccc(O)c(O)c1 | > 350 | 117.5 | > 10 | – | – | – | – |
| O=C(/C=C/c1ccc(O)c(O)c1)OCCOC(=O)/C=C/c1ccc(O)c(O)c1 | > 388 | 194 | > 10 | – | – | – | – |
| O=C(OC(C(=O)O)C(OC(=O)c1cc(O)cc(O)c1)C(=O)O)c1cc(O)cc(O)c1 (stereo not drawn) | > 119 | > 119 | – | – | – | – | – |
| O=C(/C=C\c1ccc(O)c(O)c1)OC1CCCC(OC(=O)/C=C\c2ccc(O)c(O)c2)C1 (stereo not drawn) | > 68.2 | 36.4 | 1.63 | – | – | – | – |
| O=C(/C=C/c1ccc(O)c(O)c1)O[C@@H]1C[C@](O)(C(=O)O)C[C@@H](O)[C@H]1O [CHLOROGENIC ACID] | > 497 | 249 | – | – | – | – | – |
| O=C(/C=C/c1ccc(O)c(O)c1)O[C@@H]1C[C@@](O)(C(=O)O)CC(O)[C@@H]1OC(=O)/C=C/c1ccc(O)c(O)c1 (stereo partly drawn) | 12 | 116 | 1.4 | – | – | – | – |
| O=C(/C=C/c1ccc(O)c(O)c1)O[C@@H]1CC(OC(=O)/C=C/c2ccc(O)c(O)c2)(C(=O)O)C[C@@H](O)C1O (single isomer, unassigned) [CYNARIN] | 4 | 145 | 1.6 | – | – | – | – |
| O=C(O)C(O)C(O)C(=O)O (stereo not drawn) | > 1000 | > 1000 | – | – | – | – | – |
| O=C(/C=C/c1ccc(O)c(O)c1)OCC(OC(=O)/C=C/c1ccc(O)c(O)c1)C(=O)O (stereo not drawn) | 2.3 | 145 | 0.52 | – | – | – | – |
| O=C(/C=C/c1ccc(O)c(O)c1)OC(C(=O)O)C(OC(=O)/C=C/c1ccc(O)c(O)c1)C(=O)O (stereo in doubt; 1 (L)) | – | 264 | – | – | – | – | – |
| O=C(/C=C\c1ccc(O)c(O)c1)OC1CCCCC1OC(=O)/C=C\c1ccc(O)c(O)c1 (stereo not drawn) | > 90.9 | 22.7 | 8.36 | – | – | – | – |
| O=C(/C=C/c1ccc(O)c(O)c1)OC1C[C@](O)(C(=O)O)C[C@@H](O)[C@H]1OC(=O)/C=C/c1ccc(O)c(O)c1 (stereo partly drawn) | 4 | 145 | 0.6 | – | – | – | – |
| O=C(/C=C/c1ccc(O)cc1)OC(C(=O)O)C(OC(=O)/C=C/c1ccc(O)cc1)C(=O)O (stereo not drawn) | > 227 | 114 | – | – | – | – | – |
| O=C(/C=C\c1ccc(O)c(O)c1)OC1CCC(OC(=O)/C=C\c2ccc(O)c(O)c2)CC1 (stereo not drawn) | > 45 | 20.5 | 1.01 | – | – | – | – |
| O=C(CCc1ccc(O)c(O)c1)OC(C(=O)O)C(OC(=O)CCc1ccc(O)c(O)c1)C(=O)O (stereo not drawn) | – | > 263 | 2.38 | 8.4 | 7.8 | 31.2 | – |

| Structure (SMILES) | EC50 [1, 6] [µM] | LD5 (MT2) [µM] | IC50 [2] [µM] | EC50 [1] [µM] | EC50 [3] [µM] | EC50 [4] [µM] | EC50 [5] [µM] |
| --- | --- | --- | --- | --- | --- | --- | --- |
| O=C(/C=C/c1ccc(O)c(O)c1)OC(C(=O)OC(c1ccccc1)c1ccccc1)C(OC(=O)/C=C/c1ccc(O)c(O)c1)C(=O)OC(c1ccccc1)c1ccccc1 (stereo not drawn) | > 37.2 | 16.1 | – | – | – | – | – |
| O=C(O)[C@]1(O)C[C@@H](O)[C@@H](O)[C@H](O)C1 [QUINIC ACID] | > 1820 | 907 | – | – | – | – | – |
| COc1ccc(/C=C/C(=O)OC(C(=O)O)C(OC(=O)/C=C/c2ccc(OC)c(OC)c2)C(=O)O)cc1OC (stereo not drawn) | > 178 | 89 | – | – | – | – | – |
| O=C(/C=C/c1ccc(O)c(O)c1)Oc1cc(OC(=O)/C=C/c2ccc(O)c(O)c2)cc(C(=O)O)c1 | > 75 | 100 | 6.9 | – | – | – | – |
| O=C(OC(C(=O)O)C(OC(=O)c1ccc(F)c(F)c1)C(=O)O)c1ccc(F)c(F)c1 (stereo not drawn) | > 59.2 | 28.9 | – | – | – | – | – |
| O=C(OC(C(=O)O)C(OC(=O)c1cc(O)c(O)c(O)c1)C(=O)O)c1cc(O)c(O)c(O)c1 (stereo not drawn) | – | 2.7 | 0.97 | 0.66 | 0.29 | 31.2 | – |
| O=C(OC(C(=O)O)C(OC(=O)c1ccc(O)c(O)c1)C(=O)O)c1ccc(O)c(O)c1 (stereo not drawn) | – | 90 | 0.43 | 0.95 | 0.82 | – | > 52.5 |
| O=C(/C=C/c1ccc(O)c(O)c1)O[C@@H]1C[C@](O)(C(=O)O)C[C@@H](OC(=O)/C=C/c2ccc(O)c(O)c2)[C@H]1O | 2 | 290 | 1.3 | – | – | – | – |
| O=C(/C=C/c1ccc(O)c(O)c1)O[C@H](C(=O)O)[C@H](OC(=O)/C=C/c1ccc(O)c(O)c1)C(=O)O [CHICORIC ACID] | – | 115 | – | – | – | – | – |
| O=C(OC(C(=O)O)C(OC(=O)c1cc(O)ccc1O)C(=O)O)c1cc(O)ccc1O (stereo not drawn) | > 238 | > 238 | – | – | – | – | – |
| O=C(/C=C/c1ccc(O)c(O)c1)OC1CCCC(OC(=O)/C=C/c2ccc(O)c(O)c2)C1 (stereo not drawn) | > 34.1 | 9.1 | 1.8 | – | – | – | – |
| O=C(/C=C/c1ccccc1)OC(C(=O)O)C(OC(=O)/C=C/c1ccccc1)C(=O)O (stereo not drawn) | – | > 245 | – | – | – | – | – |
| O=C(Cc1ccc(O)c(O)c1)OC(C(=O)O)C(OC(=O)Cc1ccc(O)c(O)c1)C(=O)O (stereo not drawn) | – | 70 | 0.88 | 35 | 15.6 | – | > 62.5 |
| O=C(/C=C/c1cccc(O)c1)OC(C(=O)O)C(OC(=O)/C=C/c1cccc(O)c1)C(=O)O (stereo not drawn) | > 283 | 566 | – | – | – | – | – |
| O=C(/C=C/c1ccc(O)c(O)c1)OC1CCCCC1OC(=O)/C=C/c1ccc(O)c(O)c1 (stereo not drawn) | > 136 | 63.6 | > 10 | – | – | – | – |
| O=C(OC(C(=O)O)C(OC(=O)c1cccc(O)c1O)C(=O)O)c1cccc(O)c1O (stereo not drawn) | > 38 | 19 | 1.07 | – | – | – | – |
| O=C(/C=C/c1ccc(O)c(O)c1)OCCCCOC(=O)/C=C/c1ccc(O)c(O)c1 | > 242 | 121 | > 10 | – | – | – | – |
